In article PMC6582486, “Stapled EGFR peptide reduces inflammatory breast cancer and inhibits additional HER-driven models of cancer” (Journal of Translational Medicine, 2019):
Read-outs that look alike come from different tables or passages of the source. Where a SMILES comes first, the peptide text is derived from it. Bridges are numbered along the chain shown (N, C = ends). [ ]: non-standard residue; d: D form. R8 = C=CCCCCCC[C@@](C)(N)C(=O)O; S5 = C=CCCC[C@](C)(N)C(=O)O

Columns and labels:
[1] = tested on: MDA-MB-468 breast cancer cells; type: cell-based, human; settings: for increase in efficacy over unstapled EJ1: MDA-MB-468 cell viability, ratio of IC50
From the text: Fig. 1 Hydrocarbon stapling leads to increased EJ1 activity in comparison to HER-directed monoclonal therapies. a EJ1 sequence with PTD4 domain (underlined) corresponding to EGFR juxtamembrane domain sequence 643–663. Stabilized alpha helix (SAH) variations 1–5 beneath, with asterisks (*) indicating sites of staple. Control peptide (CP) with altered residues indicated by double underline. Stapled control (5) asterisks (*) indicate sites of staple. b Cartoon representation of EJ1 structure, with staple variation 5 highlighted. Positively charged residues indicated in blue, negatively charged residues in red. c Cartoon representation of CP structure, with staple variation highlighted. d Cell viability assay performed in MDA-MB-468 cells after 24 h comparing unstapled EJ1 versus staple variations SAH1, SAH4, and SAH5, with increasing concentrations. e Visualization of MDA-MB-468 cells untreated, treated with 10 µM EJ1, and 10 µM SAH5-EJ1 after 60 min. Scale bars represent 50 µm. f–h Cell viability assay performed in MDA-MB-468, MCF10A, or CHO cells over 3 days comparing treatment with Sapitinib (blue lines), SAH5-EJ1 (red lines), and SAH5-CP (grey lines). […] Data shown in d, f, g–i represent mean ± percent difference of assays performed in triplicate 1000–3000 cells were plated in 96-well plates (Falcon; Corning, NY) and allowed to adhere for 24–48 h prior to therapeutic introduction. Compounds were added and incubated on cells for 3 days in serum-containing media, followed by 2 h treatment with MTT (Sigma M5655) with the resulting formazan solubilized in DMSO. Absorbance was read at 540 nm by plate reader (uQuant, Bio-Tek Instruments). P-values were calculated from a one-way ANOVA.

[2] = tested on: MCF10A breast cells; test: Cell viability assay (MTT), MCF10A; type: cell-based, human
From the text: Fig. 1 Hydrocarbon stapling leads to increased EJ1 activity in comparison to HER-directed monoclonal therapies. a EJ1 sequence with PTD4 domain (underlined) corresponding to EGFR juxtamembrane domain sequence 643–663. Stabilized alpha helix (SAH) variations 1–5 beneath, with asterisks (*) indicating sites of staple. Control peptide (CP) with altered residues indicated by double underline. Stapled control (5) asterisks (*) indicate sites of staple. b Cartoon representation of EJ1 structure, with staple variation 5 highlighted. Positively charged residues indicated in blue, negatively charged residues in red. c Cartoon representation of CP structure, with staple variation highlighted. d Cell viability assay performed in MDA-MB-468 cells after 24 h comparing unstapled EJ1 versus staple variations SAH1, SAH4, and SAH5, with increasing concentrations. e Visualization of MDA-MB-468 cells untreated, treated with 10 µM EJ1, and 10 µM SAH5-EJ1 after 60 min. Scale bars represent 50 µm. f–h Cell viability assay performed in MDA-MB-468, MCF10A, or CHO cells over 3 days comparing treatment with Sapitinib (blue lines), SAH5-EJ1 (red lines), and SAH5-CP (grey lines). […] Absorbance was read at 540 nm by plate reader (uQuant, Bio-Tek Instruments). P-values were calculated from a one-way ANOVA.

[3] = tested on: SUM149 inflammatory breast cancer cells; type: cell-based; settings: SUM149, 10 µM, 3 days
Method: 1000–3000 cells were plated in 96-well plates (Falcon; Corning, NY) and allowed to adhere for 24–48 h prior to therapeutic introduction. Compounds were added and incubated on cells for 3 days in serum-containing media, followed by 2 h treatment with MTT (Sigma M5655) with the resulting formazan solubilized in DMSO. Absorbance was read at 540 nm by plate reader (uQuant, Bio-Tek Instruments). P-values were calculated from a one-way ANOVA.
Fig. 4 SAH5-EJ1 effectively treats models of basal and inflammatory breast cancers while increasing survival. a Changes in tumor burden in breast cancer PDX mouse model TM01278 with various concentrations of intravenous SAH5-EJ1. Control represents water as a vehicle control. *p < 0.05 (Control vs 1 µg/g); **p < 0.01 (Control vs 1 µg/g and vs 10 µg/g). N = 6 for each condition. b Kaplan–Meier curve of breast PDX mouse model treated with control (blue) or either 1 or 10 µg/g SAH5-EJ1 (green and red, respectively) (red asterisks indicate time point at which mice could no longer receive injections due to site toxicity). Data shown represent mean. N = 6 for all groups. c Cell viability assay performed in SUM149 cells over 3 days comparing treatment with Sapitinib (blue) to SAH5-EJ1 (red) and SAH5-CP (grey). Solid lines represent 24 h; dashed lines represent 72 h. Data shown represent mean ± percent difference of assays performed in triplicate. d Kaplan–Meier curve of inflammatory breast cancer SUM149-injected mouse model treated with injected control (water) (blue) or either 0.5 or 5 µg/g SAH5-EJ1 (green and red, respectively). Data shown represent mean. N = 8 for all groups. e Changes in tumor burden in SUM149-generated tumors with various doses of SAH5-EJ1. Control represents water (blue). Arrow indicates transition from intravenous (IV) SAH5-EJ1 injections to intraperitoneal (IP) on day 66. **p < 0.01 (Control vs 0.5 µg/g and vs 5 µg/g). Data shown represent mean ± standard deviation. N = 8 for all groups. f Images of mouse tumors taken on Day 116. Arrowheads indicate tumor site. Representative images selected. […]

[4] = tested on: Erlotinib-resistant lung adenocarcinoma PDX TM00784; test: Lung cancer PDX mouse model TM00784; type: in vivo
From the text: (§1) The following PDX mouse models were generated by Jackson Labs (Sacramento, CA): Breast TM01278; Grade 3 invasive ductal carcinoma, primary malignancy; EGFR inactivating R521K mutation; ERBB3 G1288A mutation in kinase domain with unknown effects on activity; increased EGFR/ERBB2/ERBB3. Lung TM00784; Grade 3 lung adenocarcinoma, primary malignancy; EGFR activating L858R mutation; increased EGFR, decreased ERBB2/ERBB3/ERBB4. All animals were maintained as outlined by University of Arizona Institutional Animal Care and Use Committee (IACUC) by the Experimental Mouse Shared Resource (EMSR).
Fig. 3 SAH5-EJ1 inhibits growth and prolongs survival in PDX models of lung cancer. a, b Cell viability assays performed in A549 or EGFR T790M mutated H1975 lung adenocarcinoma cells over 3 days comparing treatment with Sapitinib (blue lines) to SAH5-EJ1 (red lines). Solid lines represent 24 h; dashed lines represent 72 h. Data shown represent mean ± percent difference of assays performed in quadruplicate. c Reduction in tumor burden in Erlotinib-resistant lung cancer PDX mouse model TM00784 with various doses of intravenous SAH5-EJ1. Control represents water as a vehicle control. *p < 0.05 (Control vs 1 µg/g); **p < 0.01 (Control vs 1 µg/g and vs 10 µg/g). d Kaplan–Meier curve of lung PDX mouse model treated with control (blue line) or either 1 or 10 µg/g SAH5-EJ1 (green line and red line, respectively). Data shown represent mean. N = 6 for all groups

[5] = tested on: grade 3 invasive ductal breast carcinoma PDX TM01278; test: Breast cancer PDX mouse model TM01278; type: in vivo
From the text: as §1
Fig. 4 SAH5-EJ1 effectively treats models of basal and inflammatory breast cancers while increasing survival. a Changes in tumor burden in breast cancer PDX mouse model TM01278 with various concentrations of intravenous SAH5-EJ1. Control represents water as a vehicle control. *p < 0.05 (Control vs 1 µg/g); **p < 0.01 (Control vs 1 µg/g and vs 10 µg/g). N = 6 for each condition. b Kaplan–Meier curve of breast PDX mouse model treated with control (blue) or either 1 or 10 µg/g SAH5-EJ1 (green and red, respectively) (red asterisks indicate time point at which mice could no longer receive injections due to site toxicity). Data shown represent mean. N = 6 for all groups. c Cell viability assay performed in SUM149 cells over 3 days comparing treatment with Sapitinib (blue) to SAH5-EJ1 (red) and SAH5-CP (grey). […]

SMILES: CC[C@H](C)[C@H](NC(=O)[C@H](Cc1c[nH]cn1)NC(=O)[C@H](CCCNC(=N)N)NC(=O)[C@H](CCCNC(=N)N)NC(=O)[C@H](CCCNC(=N)N)NC(=O)[C@H](CCSC)NC(=O)[C@H](Cc1ccccc1)NC(=O)[C@H](C)NC(=O)[C@H](CCCNC(=N)N)NC(=O)[C@H](C)NC(=O)[C@H](CCC(N)=O)NC(=O)[C@H](CCCNC(=N)N)NC(=O)[C@H](C)NC(=O)[C@H](C)NC(=O)[C@H](C)NC(=O)[C@H](CCCNC(=N)N)NC(=O)[C@H](C)NC(=O)[C@@H](N)Cc1ccc(O)cc1)C(=O)N[C@H](C(=O)N[C@@H](CCCNC(=N)N)C(=O)N[C@@H](CCCCN)C(=O)N[C@@H](CCCNC(=N)N)C(=O)N[C@]1(C)CCCCCCC=CCCC[C@@](C)(C(=O)N[C@@H](CCCNC(=N)N)C(=O)N[C@@H](CCC(=O)O)C(N)=O)NC(=O)[C@H](CCC(N)=O)NC(=O)[C@H](CC(C)C)NC(=O)[C@H](CC(C)C)NC(=O)[C@H](CCCNC(=N)N)NC(=O)[C@H](CCCNC(=N)N)NC(=O)[C@H](CC(C)C)NC1=O)C(C)C [SAH5-EJ1] (H-YARAAARQARAFMRRRHIVRKR[R8]LRRLLQ[S5]RE-NH2; staple 23-30)
- IC50 ([1]; 24 h): 2500 nM
- cell death ([1]; MDA-MB-468, 4 µM, after 1 day): complete cell death
- increase in efficacy over unstapled EJ1 [1]: more than 7 fold
- increase in efficacy over unstapled EJ1 ([1]; listed as SAH-EJ1): 7.2 fold
- concentration at which complete cell death was observed [2]: 10 µM
- cell viability [3]: zero
- survival relative to control-treated mice ([4]; 1 µg/g (low dose) IV): 1.7 ×
- decrease in average tumor burden ([4]; 1 µg/g IV, N = 6): > 50%
- toxicity in the model ([4]; 1 or 10 µg/g IV): no detected toxicity
- increase in survival ([5]; 1 µg/g IV vs control, N = 6): 2.5 fold
- time on study at which all remaining mice were sacrificed due to toxicity at the injection site ([5]; 10 µg/g IV): 41 days
